The results in this text go back to ChEMBL document CHEMBL1129807, “Design and synthesis of 3,5-dialkylamino substituted 8H,10H-3(R),5(R),15b(S)-2,3,6,7-tetrahydro-1,5,3-dioxazepino[3,2-c]indolo[3,2-g]pteridine-7-ones” (Bioorg Med Chem Lett, 1997).

In this assay the test system is L1210. Put plainly: The compound was tested in vitro for growth inhibitory activity against murine leukemia L1210 cells. Format: functional, cell-based. As to conditions: Mus musculus.
`CN1CCN(C[C@H]2CO[C@H]3c4nc5c6ccccc6n(C)c5nc4N(C)C(=O)N3[C@@H](CN3CCN(C)CC3)O2)CC1` returned an IC50 of 20 µM. `CN(C)CCCN(C)C[C@H]1CO[C@H]2c3nc4c5ccccc5n(C)c4nc3N(C)C(=O)N2[C@@H](CN(C)CCCN(C)C)O1` had an IC50 of 24 µM. In turn, `CCN(CC)C[C@H]1CO[C@H]2c3nc4c5ccccc5n(C)c4nc3N(C)C(=O)N2[C@@H](CN(CC)CC)O1` gave an IC50 of 6 µM. With `CN1CCC(N(C)C[C@H]2CO[C@H]3c4nc5c6ccccc6n(C)c5nc4N(C)C(=O)N3[C@@H](CN(C)C3CCN(C)CC3)O2)CC1` the figure was 4 µM; with `CCN(CC)C[C@H]1CO[C@H]2c3nc4c5ccccc5n(C)c4nc3NC(=O)N2[C@@H](CN(CC)CC)O1`, 17 µM; with `Cc1c2ccncc2c(C)c2c1[nH]c1ccccc12` [ELLIPTECINE], 0.5 µM.
